Laboratory results: US5190929A, “Cyclophosphamide analogs useful as anti-tumor agents” (Research Corporation Technologies, Inc., priority 1988, dated 1993)

Assays:
[1] = tested on: P388 murine leukemia cells, cyclophosphamide-resistant (/CP); test: In vitro soft agar colony-forming cytotoxicity assay, cyclophosphamide-resistant P388 cells; assay type: cell-based, mouse; set-up: LC99: unit not given here; settings: for LC99: P388 /CP (cyclophosphamide-resistant), 1-hour exposure, 99% cell kill; for RF, resistance factor = ratio of LC99 in resistant/sensitive cells: P388, 60 min
Excerpt: (§1) A soft agar colony-forming assay according to the procedure of Chu and Fischer, Biochem. Pharmacol., 17, 753-767 (1968) was used and modified where necessary. Cultured mouse L1210 and P388 sensitive cells were purchased from EG&G Mason Research Institute, Tumor Bank, Worchester, Mass. Cultured cyclophosphamide resistant L1210 and P388 cells were obtained from Dr. Robert Struck of Southern Research Institute, Birmingham, Ala. Typically, the desired cells (2-3×10^6 cells/ml) in exponential growth and suspended in 6.5 ml of Fischer's medium (Gibco Lab., Grand Island, N.Y.) were divided into six groups (1 control and 5 treated groups) containing an equal number of cells in 1 ml. These cells were then treated with varying doses of drug (solution of perhydrooxazine in media or 20% ethanol-water), diluted with media to give a total volume of 10 ml, and incubated for one hour at 37° C. The cells were washed three times with 3 ml of supplemented Fischer's medium (containing 10% horse serum) by centrifuge (800×g), removal of media by suction, and resuspension of the pellet in media (5 ml). A 1-ml portion was used to determine the cell count with a Coulter counter. From the remainder, a 5-ml suspension of cells was prepared at a density of 10^5 cells/ml, and between 10^2 and 10^5 cells were placed on soft agar and incubated at 37° C. Colonies were counted after 10 days. The log of the surviving fraction was plotted vs. drug concentration and from this plot the LC99 was obtained. (By definition, the LC99 value represents the concentration of drug necessary to effect a 99% cell kill.)

L1210 tumor cells = test: In vivo antitumor activity, survival of L1210 bearing mice; set-up: species or system mouse (male B6 D2 F1); settings: for Long Term Survivors: experiment terminated on day 30; for response vs control in vivo at 34 µmol/kg / response vs control in vivo at 51 µmol/kg / response vs control in vivo at 68 µmol/kg / response vs control in vivo at 17 µmol/kg: Mus musculus, L1210, ip, read-out: Survival of L1210 bearing mice - % T/C × 100; for response vs control in vivo at 17 µmol/kg: 17 umol/kg; for toxicity compared with the reference activated cyclophosphamide: higher doses
Procedure: (§2) Typically 4 groups of 10 male B6 D2 F1 mice (Jackson Breeding Lab., Bar Harbor Me) were injected i.p. with 1×10^5 L1210 tumor cells. Twenty four hours after injection three groups were treated (i.p. injection) with varying doses of drug, and the fourth group received the vehicle alone. The mice were observed daily and death dates were recorded. The experiment was terminated on day 30 and median survival time (days) and % T/C (ratio of median survival time of treated group divided by the […] survival time of the control group) was calculated. The drug was delivered using either an isotonic saline solution or a carboxymethyl cellulose suspension depending on the solubility of the drug.

[2] = tested on: L1210 murine leukemia cells, cyclophosphamide-sensitive (/0); test: In vitro soft agar colony-forming cytotoxicity assay, cyclophosphamide-sensitive L1210 cells; assay type: cell-based, mouse; set-up: unit not given here; settings: L1210 /0 (sensitive); 1-hour exposure, 99% cell kill
Excerpt: as §1

[3] = tested on: L1210 murine leukemia cells, cyclophosphamide-resistant (/CP); test: In vitro soft agar colony-forming cytotoxicity assay, cyclophosphamide-resistant L1210 cells; assay type: cell-based, mouse; set-up: LC99: unit not given here; settings: for LC99: L1210 /CP (cyclophosphamide-resistant), 1-hour exposure, 99% cell kill; for RF, resistance factor = ratio of LC99 in resistant/sensitive cells: L1210, 60 min
Excerpt: as §1

[4] = tested on: P388 murine leukemia cells, cyclophosphamide-sensitive (/0); test: In vitro soft agar colony-forming cytotoxicity assay, cyclophosphamide-sensitive P388 cells; assay type: cell-based, mouse; set-up: unit not given here; settings: P388 /0 (sensitive); 1-hour exposure, 99% cell kill
Excerpt: as §1

CP-resistant L1210 cells = test: In vivo antitumor activity, survival of mice bearing CP-resistant L1210 cells; set-up: species or system mouse (male B6 D2 F1); settings: for Survival of L1210 bearing mice - % T/C × 100: CP-resistant L1210, i.p.
Procedure: as §2

Row | SMILES | LC99 [1] | RF, resistance factor = ratio of LC99 in resistant/sensitive cells [1] | response vs control in vivo at 34 µmol/kg (L1210 tumor cells; 34 umol/kg, i.p.) [%] | response vs control in vivo at 51 µmol/kg (L1210 tumor cells; 51 umol/kg, i.p.) [%] | response vs control in vivo at 68 µmol/kg (L1210 tumor cells; 68 umol/kg, i.p.) [%] | LC99 [2] | LC99 [3] | RF, resistance factor = ratio of LC99 in resistant/sensitive cells [3] | LC99 [4] | response vs control in vivo at 17 µmol/kg (L1210 tumor cells; i.p.) [%] | Long Term Survivors (L1210 tumor cells; 51 umol/kg, i.p.) | Long Term Survivors (L1210 tumor cells; 68 umol/kg, i.p.) | antitumor activity in L1210 leukemic mice (L1210 tumor cells; all doses tested) | toxicity compared with the reference activated cyclophosphamide (L1210 tumor cells) | further results
1 | CC1CC(OO)NP(=O)(N(CCCl)CCCl)O1 (centres unmarked) [Compound 1, 4-hydroperoxy-6-methylcyclophosphamide] | 69 | 2.7 | 138 | 56 | 50 | 32 | 177 | 5.5 | 26 | – | – | – | – | – | Long Term Survivors (L1210 tumor cells; 34 umol/kg, i.p.): 2/6
2 | CC(C)C1CC(OO)NP(=O)(N(CCCl)CCCl)O1 (centres unmarked) [Compound 2, 4-hydroperoxy-6-isopropylcyclophosphamide] | 61 | 0.7 | – | – | – | 105 | 115 | 1.1 | 86 | – | – | – | – | – | –
3 | O=P1(N(CCCl)CCCl)NC(OO)CC(CCc2ccccc2)O1 (centres unmarked) [Compound 3, 4-hydroperoxy-6-phenethylcyclophosphamide] | 5 | 0.6 | 106 | 25 | – | 11 | 9 | 1.1 | 9 | – | – | – | – | – | –
4 | O=P1(N(CCCl)CCCl)NC(OO)CC(c2ccccc2)O1 (centres unmarked) [Compound 4, 4-hydroperoxy-6-phenylcyclophosphamide] | 7 | 0.6 | 144 | – | – | 17 | 15 | 0.9 | 11 | 117 | – | – | – | – | Survival of L1210 bearing mice - % T/C × 100 (L1210 tumor cells; 51 umol/kg, i.p.): toxic
5 | O=[N+]([O-])c1ccc(C2CC(OO)NP(=O)(N(CCCl)CCCl)O2)cc1 (centres unmarked) [Compound 5, 4-hydroperoxy-6-p-nitrophenylcyclophosphamide] | 3 | 0.4 | 163 | 194 | 225 | 8 | 8 | 1.0 | 7 | – | 2/6 | 4/6 | highly active at all doses tested | less toxic at higher doses than the reference activated cyclophosphamide | Long Term Survivors (L1210 tumor cells; 34 umol/kg, i.p.): 1/6
6 | Cc1ccc(C2CC(OO)NP(=O)(N(CCCl)CCCl)O2)cc1 (centres unmarked) [Compound 6, 4-Hydroperoxy-6-p-tolylcyclophosphamide] | 3 | 1.0 | 150 | 175 | 180 | 5 | 6 | 1.2 | 3 | – | 1/6 | 1/6 | highly active at all doses tested | less toxic at higher doses than the reference activated cyclophosphamide | –
7 | O=P1(N(CCCl)CCCl)NC(OO)CC(c2ccc(F)cc2)O1 (centres unmarked) [Compound 7, 4-hydroperoxy-6-p-fluorophenylcyclophosphamide] | 3 | 0.5 | 163 | 188 | 63 | 7 | 8 | 1.1 | 6 | – | 1/6 | 1/6 | – | – | antitumor activity in L1210 leukemic mice (L1210 tumor cells; lower doses tested): highly active at the lower doses tested
8 | O=P1(N(CCCl)CCCl)NC(OO)CC(c2cccnc2)O1 (centres unmarked) [Compound 8, 4-hydroxyperoxy-6-(3-pyridyl)cyclophosphamide] | 24 | 0.7 | 131 | 69 | 63 | 36 | 56 | 1.6 | 33 | – | – | – | – | – | –
9 | O=P1(N(CCCl)CCCl)NC(OO)CC(c2ccncc2)O1 (centres unmarked) [Compound 9, 4-Hydroperoxy-6-(4-pyridyl)cyclophosphamide] | 27 | 0.6 | 150 | 164 | 193 | 53 | 57 | 1.1 | 44 | 131 | – | 1/6 | highly active at all doses tested | less toxic at higher doses than the reference activated cyclophosphamide | Survival of L1210 bearing mice - % T/C × 100 (CP-resistant L1210 cells; 17 umol/kg): 119%; Survival of L1210 bearing mice - % T/C × 100 (CP-resistant L1210 cells; 34 umol/kg): 131%; Survival of L1210 bearing mice - % T/C × 100 (CP-resistant L1210 cells; 51 umol/kg): 138%; Survival of L1210 bearing mice - % T/C × 100 (CP-resistant L1210 cells; 68 umol/kg): 150%; survival / lifespan of mice bearing cyclophosphamide resistant L1210 leukemia (CP-resistant L1210 cells): prolongs the survival of these mice bearing the drug-resistant leukemia at all doses tested
10 | O=P1(N(CCCl)CCCl)NC(OO)CCO1 (centres unmarked) [Ref, reference compound] | 60 | 10 | 194 | 50 | – | 8 | 141 | 17 | 6 | 136 | – | – | – | – | toxicity (CP-resistant L1210 cells; 51 umol/kg dose, mice bearing cyclophosphamide resistant L1210): toxicity is apparent at the 51 umol/kg dose; Survival of L1210 bearing mice - % T/C × 100 (CP-resistant L1210 cells; 17 umol/kg): 112%; Survival of L1210 bearing mice - % T/C × 100 (CP-resistant L1210 cells; 34 umol/kg): 100%; Survival of L1210 bearing mice - % T/C × 100 (CP-resistant L1210 cells; 51 umol/kg): 75%; survival / lifespan of mice bearing cyclophosphamide resistant L1210 leukemia (CP-resistant L1210 cells): no significant increase in lifespan is observed
